Among the test systems are 786-0 renal; A549 NSCLC; COLO 205 colon; NCI-H460 lung; NCI-H522 lung; OVCAR-8 ovarian; RPMI-8226 leukemia; SF-539 CNS; SK-MEL-2 melanoma; TK-10 renal.
What all share (assay): NCI-60 cell line screen, 48 h

The structures appear in SMILES notation.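 Where inhibition never reached the appropriate level, the endpoint shown equals the highest concentration tested. Otherwise, values were interpolated linearly from a five-concentration, 48-hour dose response in 96-well plates. The concentration for 50% growth inhibition is given as GI50. Definition used: TGI = concentration required for complete inhibition of growth.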

With `CCC1CCCCN1C(=S)N/N=C(\C)c1ccccn1` (stereo not given), the GI50 with 786-0 renal is 853 nM; with A549 NSCLC it was 34.6 nM; with COLO 205 colon it was 22.7 nM; in the assay with NCI-H460 lung, 47.9 nM; in the assay on NCI-H522 lung it was 91.2 nM; with OVCAR-8 ovarian it was less than 25.5 nM. The GI50 with RPMI-8226 leukemia is 42.3 nM; with SF-539 CNS it was 171 nM; in the assay with SK-MEL-2 melanoma it was 73.3 nM; with TK-10 renal it was 191 nM. Also, the TGI is 2390 nM with 786-0 renal; 2940 nM with A549 NSCLC; 379 nM in the assay with COLO 205 colon; 3170 nM in the assay on NCI-H460 lung; 1820 nM in the assay on NCI-H522 lung; 2060 nM in the assay with OVCAR-8 ovarian. Besides, the TGI in the assay on RPMI-8226 leukemia worked out at 1890 nM; in the assay with SF-539 CNS, 2450 nM; with SK-MEL-2 melanoma, 1650 nM; with TK-10 renal it was 2560 nM.
Take `O=C1/C(=C/c2ccccc2)CN(CCC(=O)N2C/C(=C\c3ccccc3)C(=O)/C(=C/c3ccccc3)C2)C/C1=C\c1ccccc1`: the GI50 was 9800 nM in the assay with 786-0 renal; 29300 nM in the assay on A549 NSCLC; 12400 nM in the assay with COLO 205 colon; 35900 nM in the assay on NCI-H460 lung; 14600 nM with NCI-H522 lung; 5400 nM with OVCAR-8 ovarian. The GI50 with RPMI-8226 leukemia is 46 nM; with SF-539 CNS it was 13900 nM; in the assay with SK-MEL-2 melanoma, 17500 nM; in the assay with TK-10 renal it was 18300 nM. For the same compound, the TGI is 32900 nM in the assay with 786-0 renal; more than 100000 nM in the assay with A549 NSCLC; more than 67500 nM in the assay with COLO 205 colon; more than 100000 nM in the assay with NCI-H460 lung; 62700 nM in the assay with NCI-H522 lung; more than 100000 nM with OVCAR-8 ovarian. Further, the TGI was found to be 500 nM with RPMI-8226 leukemia, 50600 nM in the assay on SF-539 CNS, 38100 nM with SK-MEL-2 melanoma and 43900 nM in the assay on TK-10 renal.
For the compound `COc1ccc(-c2nc(N)c3ncn(C4OC(CO)C(O)C4O)c3n2)cc1` (stereo not given), the TGI with 786-0 renal, with A549 NSCLC, in the assay on COLO 205 colon, in the assay with NCI-H460 lung, in the assay on NCI-H522 lung and in the assay on OVCAR-8 ovarian was more than 100000 nM in each case. For the same compound, the TGI with RPMI-8226 leukemia, in the assay with SF-539 CNS, in the assay on SK-MEL-2 melanoma and in the assay with TK-10 renal was more than 100000 nM each time.
Turning to `CCC(c1ccc(OC)cc1)C(CC)c1ccc(O)c(CN2CCCC2)c1` (stereo not given), the GI50 in the assay with 786-0 renal is 2060 nM; in the assay with A549 NSCLC, 3730 nM; in the assay with COLO 205 colon, 1810 nM; with NCI-H460 lung it was 3410 nM; in the assay on NCI-H522 lung it was 1660 nM; with OVCAR-8 ovarian it was 3080 nM. For the same compound, the GI50 in the assay on RPMI-8226 leukemia is 2240 nM; in the assay with SF-539 CNS it was 4160 nM; with SK-MEL-2 melanoma, 1950 nM; in the assay with TK-10 renal, 2350 nM. Also, the TGI with 786-0 renal was determined as 5120 nM; in the assay on A549 NSCLC, 13800 nM; in the assay with COLO 205 colon it was 3710 nM; in the assay on NCI-H460 lung it was 11600 nM; with NCI-H522 lung, 3790 nM; with OVCAR-8 ovarian, 10700 nM. The TGI came to 6280 nM in the assay with RPMI-8226 leukemia, 15600 nM in the assay with SF-539 CNS, 4030 nM in the assay on SK-MEL-2 melanoma and 10800 nM with TK-10 renal.
With `CC1=C(/C=C/C2=CC(=C\C(=O)O)/CC(C3=C(C)CCCC3(C)C)C2)C(C)(C)CCC1` (stereo not given), the TGI in the assay on 786-0 renal is 28400 nM; in the assay with A549 NSCLC it was 19600 nM; with COLO 205 colon it was 30700 nM; with NCI-H460 lung it was 27800 nM; with NCI-H522 lung, 22700 nM; with OVCAR-8 ovarian, 27800 nM. In addition, the TGI came to 27000 nM in the assay with RPMI-8226 leukemia, 30600 nM in the assay with SF-539 CNS, 23500 nM in the assay on SK-MEL-2 melanoma and 27300 nM with TK-10 renal.
As for `O=C1c2cccc3cc([N+](=O)[O-])cc(c23)C(=O)N1CCN1CCCC1`, the GI50 was 280 nM in the assay on 786-0 renal; 242 nM with A549 NSCLC; 648 nM in the assay on COLO 205 colon; 161 nM in the assay with NCI-H460 lung; 495 nM in the assay on NCI-H522 lung; 566 nM in the assay on OVCAR-8 ovarian. The GI50 in the assay on RPMI-8226 leukemia was 203 nM; in the assay with SF-539 CNS it was 487 nM; in the assay on SK-MEL-2 melanoma it was 1880 nM; in the assay with TK-10 renal it was 697 nM. Moreover, the TGI in the assay on 786-0 renal was 1200 nM; in the assay on A549 NSCLC it was 1690 nM; in the assay with COLO 205 colon, 2920 nM; in the assay on NCI-H460 lung it was 902 nM; in the assay on NCI-H522 lung, 2880 nM; in the assay with OVCAR-8 ovarian, 4380 nM. For the same compound, the TGI came out at 1270 nM in the assay with RPMI-8226 leukemia, 2040 nM with SF-539 CNS, 4450 nM in the assay with SK-MEL-2 melanoma and 2520 nM in the assay with TK-10 renal.
Take `CCCCNC(=O)Oc1ccc2c(=O)c3sc4c(=O)c5ccccc5c(=O)c4c3c(=O)c2c1`: the GI50 in the assay on 786-0 renal was 1770 nM; in the assay with A549 NSCLC, 209 nM; in the assay with COLO 205 colon, 1810 nM; in the assay with NCI-H460 lung, 195 nM; in the assay on NCI-H522 lung, 379 nM; in the assay on OVCAR-8 ovarian, 1440 nM. Further, the GI50 in the assay on RPMI-8226 leukemia was 1160 nM; in the assay with SF-539 CNS, 235 nM; in the assay with SK-MEL-2 melanoma, 1370 nM; in the assay with TK-10 renal, 2190 nM. The TGI with 786-0 renal was determined as 4230 nM; in the assay on A549 NSCLC it was 481 nM; in the assay on COLO 205 colon, 3500 nM; in the assay on NCI-H460 lung it was 395 nM; with NCI-H522 lung, 1640 nM; with OVCAR-8 ovarian it was 4760 nM. Besides, the TGI with RPMI-8226 leukemia was determined as 4420 nM; in the assay with SF-539 CNS, 767 nM; with SK-MEL-2 melanoma it was 3300 nM; with TK-10 renal, 3780 nM.

These data come from PubChem BioAssay (NCI).
